## Cc1nc(CCl)nc2ccccc12
In THF, 281.15 K
  solubility (mole fraction): 0.229
In THF, 286.15 K
  solubility (mole fraction): 0.264
In THF, 291.15 K
  solubility (mole fraction): 0.297
In THF, 296.15 K
  solubility (mole fraction): 0.339
In THF, 301.15 K
  solubility (mole fraction): 0.374
In THF, 306.15 K
  solubility (mole fraction): 0.411
In THF, 311.15 K
  solubility (mole fraction): 0.452
In THF, 316.15 K
  solubility (mole fraction): 0.492
In THF, 321.15 K
  solubility (mole fraction): 0.528
In THF, 326.15 K
  solubility (mole fraction): 0.563
In THF, 331.15 K
  solubility (mole fraction): 0.604
In acetone, 281.15 K
  solubility (mole fraction): 0.107
In acetone, 286.15 K
  solubility (mole fraction): 0.142
In acetone, 291.15 K
  solubility (mole fraction): 0.188
In acetone, 296.15 K
  solubility (mole fraction): 0.244
In acetone, 301.15 K
  solubility (mole fraction): 0.297
In acetone, 306.15 K
  solubility (mole fraction): 0.373
In acetone, 311.15 K
  solubility (mole fraction): 0.449
In acetone, 316.15 K
  solubility (mole fraction): 0.531
In acetone, 321.15 K
  solubility (mole fraction): 0.603
In acetone, 326.15 K
  solubility (mole fraction): 0.676
In acetone, 331.15 K
  solubility (mole fraction): 0.74
In acetonitrile, 281.15 K
  solubility (mole fraction): 0.0488
In acetonitrile, 286.15 K
  solubility (mole fraction): 0.0692
In acetonitrile, 291.15 K
  solubility (mole fraction): 0.096
In acetonitrile, 296.15 K
  solubility (mole fraction): 0.13
In acetonitrile, 301.15 K
  solubility (mole fraction): 0.174
In acetonitrile, 306.15 K
  solubility (mole fraction): 0.22
In acetonitrile, 311.15 K
  solubility (mole fraction): 0.276
In acetonitrile, 316.15 K
  solubility (mole fraction): 0.34
In acetonitrile, 321.15 K
  solubility (mole fraction): 0.411
In acetonitrile, 326.15 K
  solubility (mole fraction): 0.488
In acetonitrile, 331.15 K
  solubility (mole fraction): 0.559
In cyclohexane, 281.15 K
  solubility (mole fraction): 0.0193
In cyclohexane, 286.15 K
  solubility (mole fraction): 0.0266
In cyclohexane, 291.15 K
  solubility (mole fraction): 0.0361
In cyclohexane, 296.15 K
  solubility (mole fraction): 0.0484
In cyclohexane, 301.15 K
  solubility (mole fraction): 0.0639
In cyclohexane, 306.15 K
  solubility (mole fraction): 0.0832
In cyclohexane, 311.15 K
  solubility (mole fraction): 0.107
In cyclohexane, 316.15 K
  solubility (mole fraction): 0.135
In cyclohexane, 321.15 K
  solubility (mole fraction): 0.168
In cyclohexane, 326.15 K
  solubility (mole fraction): 0.207
In cyclohexane, 331.15 K
  solubility (mole fraction): 0.249
In ethanol, 281.15 K
  solubility (mole fraction): 0.061
In ethanol, 286.15 K
  solubility (mole fraction): 0.0771
In ethanol, 291.15 K
  solubility (mole fraction): 0.0969
In ethanol, 296.15 K
  solubility (mole fraction): 0.123
In ethanol, 301.15 K
  solubility (mole fraction): 0.152
In ethanol, 306.15 K
  solubility (mole fraction): 0.183
In ethanol, 311.15 K
  solubility (mole fraction): 0.219
In ethanol, 316.15 K
  solubility (mole fraction): 0.257
In ethanol, 321.15 K
  solubility (mole fraction): 0.297
In ethanol, 326.15 K
  solubility (mole fraction): 0.337
In ethanol, 331.15 K
  solubility (mole fraction): 0.389
In ethyl acetate, 281.15 K
  solubility (mole fraction): 0.105
In ethyl acetate, 286.15 K
  solubility (mole fraction): 0.136
In ethyl acetate, 291.15 K
  solubility (mole fraction): 0.173
In ethyl acetate, 296.15 K
  solubility (mole fraction): 0.217
In ethyl acetate, 301.15 K
  solubility (mole fraction): 0.266
In ethyl acetate, 306.15 K
  solubility (mole fraction): 0.32
In ethyl acetate, 311.15 K
  solubility (mole fraction): 0.378
In ethyl acetate, 316.15 K
  solubility (mole fraction): 0.44
In ethyl acetate, 321.15 K
  solubility (mole fraction): 0.503
In ethyl acetate, 326.15 K
  solubility (mole fraction): 0.567
In ethyl acetate, 331.15 K
  solubility (mole fraction): 0.63
In isopropanol, 281.15 K
  solubility (mole fraction): 0.0429
In isopropanol, 286.15 K
  solubility (mole fraction): 0.0569
In isopropanol, 291.15 K
  solubility (mole fraction): 0.0748
In isopropanol, 296.15 K
  solubility (mole fraction): 0.0964
In isopropanol, 301.15 K
  solubility (mole fraction): 0.123
In isopropanol, 306.15 K
  solubility (mole fraction): 0.156
In isopropanol, 311.15 K
  solubility (mole fraction): 0.196
In isopropanol, 316.15 K
  solubility (mole fraction): 0.245
In isopropanol, 321.15 K
  solubility (mole fraction): 0.304
In isopropanol, 326.15 K
  solubility (mole fraction): 0.394
In isopropanol, 331.15 K
  solubility (mole fraction): 0.467
In n-butanol, 281.15 K
  solubility (mole fraction): 0.05
In n-butanol, 286.15 K
  solubility (mole fraction): 0.063
In n-butanol, 291.15 K
  solubility (mole fraction): 0.081
In n-butanol, 296.15 K
  solubility (mole fraction): 0.101
In n-butanol, 301.15 K
  solubility (mole fraction): 0.125
In n-butanol, 306.15 K
  solubility (mole fraction): 0.153
In n-butanol, 311.15 K
  solubility (mole fraction): 0.186
In n-butanol, 316.15 K
  solubility (mole fraction): 0.225
In n-butanol, 321.15 K
  solubility (mole fraction): 0.27
In n-butanol, 326.15 K
  solubility (mole fraction): 0.319
In n-butanol, 331.15 K
  solubility (mole fraction): 0.361
In n-hexane, 281.15 K
  solubility (mole fraction): 0.00825
In n-hexane, 286.15 K
  solubility (mole fraction): 0.0115
In n-hexane, 291.15 K
  solubility (mole fraction): 0.0146
In n-hexane, 296.15 K
  solubility (mole fraction): 0.019
In n-hexane, 301.15 K
  solubility (mole fraction): 0.0232
In n-hexane, 306.15 K
  solubility (mole fraction): 0.0289
In n-hexane, 311.15 K
  solubility (mole fraction): 0.0372
In n-hexane, 316.15 K
  solubility (mole fraction): 0.0476
In n-hexane, 321.15 K
  solubility (mole fraction): 0.0598
In n-hexane, 326.15 K
  solubility (mole fraction): 0.0751
In n-hexane, 331.15 K
  solubility (mole fraction): 0.093
In n-propanol, 281.15 K
  solubility (mole fraction): 0.134
In n-propanol, 286.15 K
  solubility (mole fraction): 0.145
In n-propanol, 291.15 K
  solubility (mole fraction): 0.158
In n-propanol, 296.15 K
  solubility (mole fraction): 0.172
In n-propanol, 301.15 K
  solubility (mole fraction): 0.186
In n-propanol, 306.15 K
  solubility (mole fraction): 0.201
In n-propanol, 311.15 K
  solubility (mole fraction): 0.217
In n-propanol, 316.15 K
  solubility (mole fraction): 0.234
In n-propanol, 321.15 K
  solubility (mole fraction): 0.253
In n-propanol, 326.15 K
  solubility (mole fraction): 0.273
In n-propanol, 331.15 K
  solubility (mole fraction): 0.294
